The text below walks through data of patent US20080004253A1, “Thiazolopyrimidine modulators of TRPV1” (priority 2006, published 2008).

One experiment concerns the target T1, rat TRPV1 (Rattus norvegicus, UniProt O35433).
T1 construct: expressed in transfected cells; host or cells: HEK293 (rTRPV1/HEK293), geneticin selection
Put plainly: Functional assay: block of capsaicin-induced Ca2+ influx, rat assay (rTRPV1/HEK293, FLIPR). The format is cell-based. To be noted: rTRPV1/HEK293 cells, capsaicin challenge, Fluo-3 fluorescence; mean; > value = solubility limit in assay medium. An outline of the steps: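 HEK293 cells expressing rat TRPV1, loaded with fluo3 and preincubated 30 min with compound in 20 μM Ca2+ buffer before capsaicin challenge. Block read as fluo3 fluorescence change over 100 s after agonist, 3-fold series from 10 μM in duplicate. IC50 by non-linear regression, mean values.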

In the next experiment the target is T2, human TRPV1 (Homo sapiens, UniProt Q8NER1).
T2 construct: expressed in transfected cells; host or cells: HEK293 (hTRPV1/HEK293), zeocin selection
T2 sequence (Q8NER1 whole entry): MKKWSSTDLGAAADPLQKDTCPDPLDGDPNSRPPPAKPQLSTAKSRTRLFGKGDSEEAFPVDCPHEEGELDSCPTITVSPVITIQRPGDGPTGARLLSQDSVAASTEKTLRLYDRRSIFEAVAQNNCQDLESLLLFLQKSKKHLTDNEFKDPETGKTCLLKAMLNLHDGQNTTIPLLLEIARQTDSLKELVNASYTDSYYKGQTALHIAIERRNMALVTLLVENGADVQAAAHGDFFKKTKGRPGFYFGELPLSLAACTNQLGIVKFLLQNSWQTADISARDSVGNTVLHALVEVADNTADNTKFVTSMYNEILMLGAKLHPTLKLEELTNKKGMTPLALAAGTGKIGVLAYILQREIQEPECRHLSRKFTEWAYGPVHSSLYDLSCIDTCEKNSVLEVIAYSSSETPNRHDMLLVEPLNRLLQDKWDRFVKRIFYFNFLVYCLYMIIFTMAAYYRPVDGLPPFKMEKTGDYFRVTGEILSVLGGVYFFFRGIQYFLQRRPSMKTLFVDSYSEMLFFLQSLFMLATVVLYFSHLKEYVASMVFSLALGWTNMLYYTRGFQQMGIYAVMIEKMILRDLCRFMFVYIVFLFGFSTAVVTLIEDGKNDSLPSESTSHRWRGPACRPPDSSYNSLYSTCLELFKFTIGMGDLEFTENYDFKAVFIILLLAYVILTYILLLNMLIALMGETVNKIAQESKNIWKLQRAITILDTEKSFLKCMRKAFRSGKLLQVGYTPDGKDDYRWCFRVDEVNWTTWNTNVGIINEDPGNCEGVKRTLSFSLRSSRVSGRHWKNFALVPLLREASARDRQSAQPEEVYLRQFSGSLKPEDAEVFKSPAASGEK
Put plainly: Functional assay: block of capsaicin-induced Ca2+ influx, human assay (hTRPV1/HEK293, FLIPR). The format is cell-based. The settings on record: hTRPV1/HEK293 cells, 150 nM capsaicin challenge, Fluo-3 fluorescence; mean; > value = solubility limit in assay medium. An outline of the steps:
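HEK293 cells stably expressing human TRPV1, fluo3-loaded, preincubated 30 min with compound (serial 3-fold dilutions from 10 μM, duplicate) in 20 μM Ca2+ buffer. Capsaicin response taken as fluo3 fluorescence change before vs 100 s after agonist; IC50 by non-linear regression, mean values; free base or TFA salt.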

T1 sequence (O35433 whole entry): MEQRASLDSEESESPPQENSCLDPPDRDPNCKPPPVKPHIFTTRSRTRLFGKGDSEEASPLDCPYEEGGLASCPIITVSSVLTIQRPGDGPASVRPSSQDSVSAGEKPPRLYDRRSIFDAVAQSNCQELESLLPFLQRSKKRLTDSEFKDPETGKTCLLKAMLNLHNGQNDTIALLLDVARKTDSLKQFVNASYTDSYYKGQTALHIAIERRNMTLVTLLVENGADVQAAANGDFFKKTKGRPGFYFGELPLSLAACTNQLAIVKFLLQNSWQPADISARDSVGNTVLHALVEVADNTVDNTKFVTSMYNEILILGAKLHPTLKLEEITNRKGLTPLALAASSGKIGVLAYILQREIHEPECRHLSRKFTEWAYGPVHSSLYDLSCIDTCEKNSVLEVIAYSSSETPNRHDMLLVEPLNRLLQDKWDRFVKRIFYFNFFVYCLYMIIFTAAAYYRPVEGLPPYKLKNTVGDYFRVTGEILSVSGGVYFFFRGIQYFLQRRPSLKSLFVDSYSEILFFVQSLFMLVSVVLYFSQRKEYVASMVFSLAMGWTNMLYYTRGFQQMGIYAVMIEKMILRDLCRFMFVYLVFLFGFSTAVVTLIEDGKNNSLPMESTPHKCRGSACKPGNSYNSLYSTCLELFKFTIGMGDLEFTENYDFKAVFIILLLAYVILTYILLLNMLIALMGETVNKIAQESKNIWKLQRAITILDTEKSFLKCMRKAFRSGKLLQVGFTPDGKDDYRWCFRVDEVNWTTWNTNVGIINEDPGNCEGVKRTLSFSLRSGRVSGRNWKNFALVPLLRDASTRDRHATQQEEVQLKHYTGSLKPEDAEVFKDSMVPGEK

The term IC50 denotes the point on the concentration scale where inhibition reaches its midpoint. `COC(=O)c1scc(C)c1Nc1nc2c(Nc3ccc(C(F)(F)F)c(Cl)c3)ncnc2s1` [Example 207, 3-[7-(3-Chloro-4-trifluoromethyl-phenylamino)-thiazolo[5,4-d]pyrimidin-2-ylamino]-4-methyl-thiophene-2-carboxylic acid methyl ester]: the figures for the IC50 against rat TRPV1 and against human TRPV1 were 345 nM and 758 nM, respectively.

As for `CSc1ccc(Nc2nc(C)nc3sc(Nc4c(C)cccc4C)nc23)cc1` [Example 114, N^2-(2,6-Dimethyl-phenyl)-5-methyl-N^7-(4-methylsulfanyl-phenyl)-thiazolo[5,4-d]pyrimidine-2,7-diamine], the 50% inhibitory concentration (IC50) against rat TRPV1 was found to be 13 nM; against human TRPV1 it was 39 nM.

As for `Cc1nc(Nc2ccc(C)c(F)c2)c2nc(Nc3c(C)cccc3C)sc2n1` [Example 133, N^2-(2,6-Dimethyl-phenyl)-N^7-(3-fluoro-4-methyl-phenyl)-5-methyl-thiazolo[5,4-d]pyrimidine-2,7-diamine], the results for the IC50 against rat TRPV1 and against human TRPV1 were 107 nM and 175 nM, respectively.

`Cc1nc(Nc2ccc(C(C)(C)C)cc2)c2nc(Nc3c(C)cccc3C)sc2n1` [Example 244, N^7-(4-tert-Butyl-phenyl)-N^2-(2,6-dimethyl-phenyl)-5-methyl-thiazolo[5,4-d]pyrimidine-2,7-diamine]: the IC50 was found to be 3 nM at rat TRPV1 and 12 nM on human TRPV1.

In the case of `CSc1nc(Nc2ccc(S(=O)(=O)N(C)C)cc2)c2nc(Nc3c(Cl)cccc3Cl)sc2n1` [Example 127, 4-[2-(2,6-Dichloro-phenylamino)-5-methylsulfanyl-thiazolo[5,4-d]pyrimidin-7-ylamino]-N,N-dimethyl-benzenesulfonamide], the IC50 on rat TRPV1 came to 59 nM; at human TRPV1 it was 138 nM.

Regarding `CC(=O)c1ccc(Nc2nc(C)nc3sc(Nc4c(Cl)cccc4Cl)nc23)cc1` [Example 86, 1-{4-[2-(2,6-Dichloro-phenylamino)-5-methyl-thiazolo[5,4-d]pyrimidin-7-ylamino]-phenyl}-ethanone], the IC50 at rat TRPV1 was determined as 3 nM; against human TRPV1, 5 nM.

Regarding `Cc1nc(Nc2ccc(C(F)(F)F)nc2)c2nc(Nc3c(Cl)cccc3Cl)sc2n1` [Example 6, N^2-(2,6-Dichloro-phenyl)-5-methyl-N^7-(6-trifluoromethyl-pyridin-3-yl)-thiazolo[5,4-d]pyrimidine-2,7-diamine], the IC50 was 1 nM against rat TRPV1 and 5 nM at human TRPV1.

As for `CCCCOc1nc(Nc2ccc(C(F)(F)F)cc2)c2nc(Nc3c(Cl)cccc3Cl)sc2n1` [Example 189, 5-Butoxy-N^2-(2,6-dichloro-phenyl)-N^7-(4-trifluoromethyl-phenyl)-thiazolo[5,4-d]pyrimidine-2,7-diamine], the IC50 turned out to be 8 nM against rat TRPV1 and 19 nM on human TRPV1.

Consider `CC1CCCCN1c1nc(Nc2ccc(C(F)(F)F)c(Cl)c2)c2nc(Nc3c(Cl)cccc3Cl)sc2n1` (racemic) [Example 136, (racemic)-N^7-(3-Chloro-4-trifluoromethyl-phenyl)-N^2-(2,6-dichloro-phenyl)-5-(2-methyl-piperidin-1-yl)-thiazolo[5,4-d]pyrimidine-2,7-diamine], for which the IC50 was 25 nM on rat TRPV1 and 205 nM on human TRPV1.

For `Cc1ccc(Nc2ncnc3sc(Nc4c(C)cccc4C)nc23)cc1F` [Example 148, N^2-(2,6-Dimethyl-phenyl)-N^7-(3-fluoro-4-methyl-phenyl)-thiazolo[5,4-d]pyrimidine-2,7-diamine], the IC50 against rat TRPV1 amounted to 126 nM; against human TRPV1 it was 735 nM.

With `Cc1nc(Nc2ccc(N(C)S(C)(=O)=O)cc2)c2nc(Nc3c(C)cccc3C)sc2n1` [Example 164, N-{4-[2-(2,6-Dimethyl-phenylamino)-5-methyl-thiazolo[5,4-d]pyrimidin-7-ylamino]-phenyl}-N-methyl-methanesulfonamide], the half-maximal inhibitory concentration (IC50) stood at 626 nM at rat TRPV1 and 6510 nM on human TRPV1.

Take `CS(=O)(=O)c1ccccc1Nc1nc2c(Nc3ccc(C(F)(F)F)cc3)ncnc2s1` [Example 201, N^2-(2-Methanesulfonyl-phenyl)-N^7-(4-trifluoromethyl-phenyl)-thiazolo[5,4-d]pyrimidine-2,7-diamine]: the IC50 against rat TRPV1 was found to be 244 nM; against human TRPV1, 257 nM.

Regarding `CSc1nc(Nc2ccc(C(F)(F)F)cc2)c2nc(Nc3c(Cl)cccc3Cl)sc2n1` [Example 52, N^2-(2,6-Dichloro-phenyl)-5-methylsulfanyl-N^7-(4-trifluoromethyl-phenyl)-thiazolo[5,4-d]pyrimidine-2,7-diamine], the IC50 was found to be 154 nM against rat TRPV1 and 226 nM against human TRPV1.

For `O=S(=O)(c1ccc(Nc2ncnc3sc(Nc4c(Cl)cncc4Cl)nc23)cc1)N1CCCC1` [Example 214, N^2-(3,5-Dichloro-pyridin-4-yl)-N^7-[4-(pyrrolidine-1-sulfonyl)-phenyl]thiazolo[5,4-d]pyrimidine-2,7-diamine], the IC50 on rat TRPV1 is 240 nM; against human TRPV1 it was 907 nM.

`Cc1cccc(C)c1Nc1nc2c(Nc3ccc(S(=O)(=O)N4CCOCC4)cc3)ncnc2s1` [Example 91, N^2-(2,6-Dimethyl-phenyl)-N^7-[4-(morpholine-4-sulfonyl)-phenyl]-thiazolo[5,4-d]pyrimidine-2,7-diamine]: the IC50 against rat TRPV1 was found to be 1 nM; on human TRPV1, 7 nM.

In the case of `FC(F)(F)c1ccc(Nc2nc(N3CCNCC3)nc3sc(Nc4c(Cl)cccc4Cl)nc23)cc1Cl` [Example 162, N^7-(3-Chloro-4-trifluoromethyl-phenyl)-N^2-(2,6-dichloro-phenyl)-5-piperazin-1-yl-thiazolo[5,4-d]pyrimidine-2,7-diamine], the IC50 against rat TRPV1 stood at 3080 nM; against human TRPV1 it was 4280 nM.

Turning to `FC(F)(F)c1ccc(Nc2nc(-c3ccccc3)nc3sc(Nc4c(Cl)cccc4Cl)nc23)cc1` [Example 70, N^2-(2,6-Dichloro-phenyl)-5-phenyl-N^7-(4-trifluoromethyl-phenyl)-thiazolo[5,4-d]pyrimidine-2,7-diamine], the IC50 against rat TRPV1 was found to be 83 nM; at human TRPV1 it was 225 nM.

Take `Oc1ccc(Nc2ncnc3sc(Nc4c(Cl)cccc4Cl)nc23)cc1O` [Example 227, 4-({2-[(2,6-Dichlorophenyl)amino][1,3]thiazolo[5,4-d]pyrimidin-7-yl}amino)benzene-1,2-diol]: the IC50 on rat TRPV1 and at human TRPV1 was more than 6670 nM throughout.

Turning to `CC(C)C1CCCN1c1nc(Nc2ccc(C(F)(F)F)cc2)c2nc(Nc3c(Cl)cccc3Cl)sc2n1` (racemic) [Example 89, (racemic)-N^2-(2,6-Dichloro-phenyl)-5-(2-isopropyl-pyrrolidin-1-yl)-N^7-(4-trifluoromethyl-phenyl)-thiazolo[5,4-d]pyrimidine-2,7-diamine], the figures for the IC50 on rat TRPV1 and on human TRPV1 were 2 nM and 7 nM, respectively.

Take `Cc1nc(Nc2ccc(C(F)(F)F)c(F)c2)c2nc(Nc3c(C)cccc3C)sc2n1` [Example 121, N^2-(2,6-Dimethyl-phenyl)-N^7-(3-fluoro-4-trifluoromethyl-phenyl)-5-methyl-thiazolo[5,4-d]pyrimidine-2,7-diamine]: the IC50 worked out at 25 nM at rat TRPV1 and 82 nM on human TRPV1.

As for `C[C@@H](O)CNc1nc(Nc2ccc(C(F)(F)F)cc2)c2nc(Nc3c(Cl)cccc3Cl)sc2n1` [Example 250, (R)-1-[2-(2,6-Dichloro-phenylamino)-7-(4-trifluoromethyl-phenylamino)-thiazolo[5,4-d]pyrimidin-5-ylamino]-propan-2-ol], the IC50 against rat TRPV1 came out at 0.7 nM; on human TRPV1, 3.3 nM.

Take `Cc1cccc(C)c1Nc1nc2c(Nc3ccc(C(F)(F)F)cn3)ncnc2s1` [Example 176, N^2-(2,6-Dimethyl-phenyl)-N^7-(5-trifluoromethyl-pyridin-2-yl)-thiazolo[5,4-d]pyrimidine-2,7-diamine]: the concentration for half-maximal inhibition (IC50) against rat TRPV1 and at human TRPV1 was more than 20000 nM each time.

On to `CC(C)Nc1nc(Nc2ccc(C(F)(F)F)cc2)c2nc(Nc3c(Cl)cccc3Cl)sc2n1` [Example 101, N^2-(2,6-Dichloro-phenyl)-N^5-isopropyl-N^7-(4-trifluoromethyl-phenyl)-thiazolo[5,4-d]pyrimidine-2,5,7-triamine], for which the 50% inhibitory concentration (IC50) on rat TRPV1 was found to be 12 nM; on human TRPV1, 18 nM.

On to `CCc1ccc(Nc2ncnc3sc(Nc4c(C)cccc4C)nc23)cc1` [Example 45, N^2-(2,6-Dimethyl-phenyl)-N^7-(4-ethyl-phenyl)-thiazolo[5,4-d]pyrimidine-2,7-diamine], for which the IC50 against rat TRPV1 came out at 37 nM; at human TRPV1, 70 nM.

For the compound `Cc1nc(Nc2ccc(C(F)(F)F)cc2)c2nc(Nc3c(C)noc3C)sc2n1` [Example 208, N^2-(3,5-Dimethyl-isoxazol-4-yl)-5-methyl-N^7-(4-trifluoromethyl-phenyl)thiazolo[5,4-d]pyrimidine-2,7-diamine], the IC50 against rat TRPV1 is 398 nM; against human TRPV1 it was 401 nM.

Take `COC(=O)c1cc(Cl)c(Nc2nc3c(Nc4ccc(C(F)(F)F)cc4)ncnc3s2)c(Cl)c1` [Example 241, 3,5-Dichloro-4-[7-(4-trifluoromethyl-phenylamino)-thiazolo[5,4-d]pyrimidin-2-ylamino]-benzoic acid methyl ester]: the IC50 came to 3200 nM on rat TRPV1 and 820 nM on human TRPV1.

With `Cc1nc(Nc2ccc(NS(C)(=O)=O)cc2)c2nc(Nc3c(C)cccc3C)sc2n1` [Example 174, N-{4-[2-(2,6-Dimethyl-phenylamino)-5-methyl-thiazolo[5,4-d]pyrimidin-7-ylamino]-phenyl}-methanesulfonamide], the IC50 was 7380 nM at rat TRPV1 and more than 20000 nM at human TRPV1.
